Measurements reported in publication PMC9104950, “Stereoselective Covalent Adduct Formation of Acyl Glucuronide Metabolite of Nonsteroidal Anti-Inflammatory Drugs with UDP-Glucuronosyltransferase” (International Journal of Molecular Sciences, 2022).

Tests used:
[1] = tested on: proteins of Nuc (nuclear fraction of liver homogenate); assay: Covalent adduct formation of NSAIDs-AG with proteins of nuclear fraction (Nuc); format: binding, rat; details: 180 μM, 1 mg/mL, 6 h
[2] = biological target: T1, UGT2B4 (Homo sapiens, UniProt P06133); assay: Covalent adduct formation of NSAIDs-AG with UGT2B4; format: binding; details: 180 μM, UGT 3.4 μM, 6 h
T1 construct: purchased Corning, Inc
T1 sequence (P06133 24-528): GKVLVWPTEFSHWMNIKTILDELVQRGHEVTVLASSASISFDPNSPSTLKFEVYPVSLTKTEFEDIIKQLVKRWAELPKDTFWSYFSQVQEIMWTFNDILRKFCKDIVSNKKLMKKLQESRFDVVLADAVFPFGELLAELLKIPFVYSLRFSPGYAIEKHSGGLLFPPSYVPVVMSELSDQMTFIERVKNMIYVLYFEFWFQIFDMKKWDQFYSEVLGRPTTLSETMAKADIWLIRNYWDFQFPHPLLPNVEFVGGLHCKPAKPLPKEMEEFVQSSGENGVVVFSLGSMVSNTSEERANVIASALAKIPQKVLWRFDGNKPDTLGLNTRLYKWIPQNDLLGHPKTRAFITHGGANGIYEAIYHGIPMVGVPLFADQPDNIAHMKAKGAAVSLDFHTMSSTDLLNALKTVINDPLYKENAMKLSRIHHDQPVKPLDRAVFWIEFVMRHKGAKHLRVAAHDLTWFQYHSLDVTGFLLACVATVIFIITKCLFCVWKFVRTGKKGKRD
Description: (§1) The concentrations of UGT were set at 3.4 μM by the preliminary experiments on the linearity of covalent adduct formation. The covalent adduct formation of NSAIDs-AG with organelle proteins and UGT was determined according to previous reports on NSAIDs-AG with albumin with some modifications. After a deproteinization of the reaction mixture, methanol/diethyl ether (3:1) was added to the pellet. […] The concentrations of the parent NSAIDs were measured using liquid chromatography-tandem mass spectrometry (LC-MS/MS). Aliquots of 10 μL were injected into the LC-MS/MS system. The LC-MS/MS equipment consisted of an LC system (UltiMate 3000 series, Thermo Fisher Scientific, Inc.) and TSQ Endura Triple Quadrupole Mass Spectrometer with electrospray ionization (Thermo Fisher Scientific, Inc.). Finnigan Xcalibur software (Thermo Fisher Scientific, Inc.) was used for data recording and analysis. Analysis was further performed using a reversed-phase column (COSMOSIL 5C18-MSII, 2.0 mm × 150 mm, 5 μm; Nacalai Tesque, Inc.). The column temperature was set to 40 °C, and the autosampler was maintained at 10 °C. The mobile phase (A; 30% methanol in 8.5 mM ammonium formate and 0.0075% formic acid, and B; 90% methanol in 8.5 mM ammonium formate and 0.0075% formic acid) was pumped at a flow rate of 0.2 mL/min. The initial mobile phase composition was maintained at 30% mobile phase B for 1 min, changed linearly to 90% mobile phase B from 1 to 8 min, maintained for 1 min, returned to 30% mobile phase B from 9 to 10 min, and maintained for 1 min for chromatographic column equilibrium. The MS scan was operated in positive ionization mode for DIC, MEF, ZOM, KET, and NAP, or negative ionization mode, for FLU. The conditions for electrospray ionization were set at 3500 V spray voltage for positive ionization mode and 2500 V spray voltage for negative ionization mode at 400 °C capillary temperature, and 300 °C vaporizer temperature with 40 arbitrary units of nitrogen sheath gas and 10 arbitrary units of auxiliary gas. The MS scan was operated in the positive or negative ionization mode. The selected reaction monitoring (SRM) mode was used, with argon as the collision gas at 1.5 mTorr. The mass resolution was set at 0.7 full-width at half-height (unit resolution). SRM transitions (precursor and product ions) were mass to charge ratios of (m/z) 296 > 214 for DIC (positive ionization mode), 294 > 250 for DIC (negative ionization mode), 242 > 224 for MEF, 292 > 139 for ZOM, 243 > 198 for R- and S-FLU, 255 > 209 for R- and S-KET, 231 > 185 for R- and S-NAP, and 302 > 220 for DIC-d4. The collision energies were 15 V for DIC (negative ionization mode), ZOM, MEF, FLU, KET, and NAP; 35 V for DIC (positive ionization mode); and DIC-d4. The concentrations of NSAIDs were determined from a single-point calibration in every assay for NSAIDs after confirmation of linearity between area and concentrations of NSAIDs.

[3] = biological target: T2, UGT1A1 (Homo sapiens, UniProt P22309); assay: Covalent adduct formation of NSAIDs-AG with UGT1A1; format: binding; details: R vs S diastereomer; 180 μM, UGT 3.4 μM, 6 h
T2 construct: purchased Corning, Inc
T2 sequence (P22309 26-533): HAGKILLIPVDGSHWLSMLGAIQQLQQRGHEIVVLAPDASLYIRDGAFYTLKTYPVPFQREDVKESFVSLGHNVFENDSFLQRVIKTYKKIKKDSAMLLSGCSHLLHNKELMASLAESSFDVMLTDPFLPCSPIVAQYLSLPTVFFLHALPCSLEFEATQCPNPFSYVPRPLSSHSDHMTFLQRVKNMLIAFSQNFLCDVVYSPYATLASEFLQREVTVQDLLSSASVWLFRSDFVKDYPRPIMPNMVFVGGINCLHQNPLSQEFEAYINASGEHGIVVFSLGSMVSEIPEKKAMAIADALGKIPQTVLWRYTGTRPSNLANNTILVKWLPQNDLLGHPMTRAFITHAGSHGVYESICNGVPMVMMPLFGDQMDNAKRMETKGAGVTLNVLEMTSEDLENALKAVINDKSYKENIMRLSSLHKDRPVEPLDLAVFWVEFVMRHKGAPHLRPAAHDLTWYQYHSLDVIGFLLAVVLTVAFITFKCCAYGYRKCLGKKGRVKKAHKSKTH
Description: as §1, with “The conditions for electrospray ionization were set at 3500 V spray voltage for positive ionization mode and 2500 V spray voltage for negative ionization mode at 400 °C capillary temperature, and 300 °C vaporizer temperature with 40 arbitrary units of nitrogen sheath gas and 10 arbitrary units of auxiliary gas. The MS scan was operated in the positive or negative ionization mode. The selected reaction monitoring (SRM) mode was used, with argon as the collision gas at 1.5 mTorr. The mass resolution was set at 0.7 full-width at half-height (unit resolution). SRM transitions (precursor and product ions) were mass to charge ratios of (m/z) 296 > 214 for DIC (positive ionization mode), 294 > 250 for DIC (negative ionization mode), 242 > 224 for MEF, 292 > 139 for ZOM, 243 > 198 for R- and S-FLU, 255 > 209 for R- and S-KET, 231 > 185 for R- and S-NAP, and 302 > 220 for DIC-d4. The collision energies were 15 V for DIC (negative ionization mode), ZOM, MEF, FLU, KET, and NAP; 35 V for DIC (positive ionization mode); and DIC-d4.” left out

[4] = tested on: proteins of Mit (mitochondrial fraction of liver homogenate); assay: Covalent adduct formation of NSAIDs-AG with proteins of mitochondrial fraction (Mit); format: binding, rat; details: 180 μM, 1 mg/mL, 6 h
[5] = set-up: method as in PMID 9571227; details: cited from earlier work
[6] = tested on: proteins of Cyt (cytosolic fraction of liver homogenate); assay: Covalent adduct formation of NSAIDs-AG with proteins of cytosolic fraction (Cyt); format: binding, rat; details: 180 μM, 1 mg/mL, 6 h
[7] = set-up: method as in PMID 1642643; details: plasma at physiological pH and temperature; cited from earlier work
[8] = biological target: T3, UGT2B7 (Homo sapiens, UniProt P16662); assay: Covalent adduct formation of NSAIDs-AG with UGT2B7; format: binding; details: 180 μM, UGT 3.4 μM, 6 h
T3 construct: purchased Corning, Inc
T3 sequence (P16662 24-529): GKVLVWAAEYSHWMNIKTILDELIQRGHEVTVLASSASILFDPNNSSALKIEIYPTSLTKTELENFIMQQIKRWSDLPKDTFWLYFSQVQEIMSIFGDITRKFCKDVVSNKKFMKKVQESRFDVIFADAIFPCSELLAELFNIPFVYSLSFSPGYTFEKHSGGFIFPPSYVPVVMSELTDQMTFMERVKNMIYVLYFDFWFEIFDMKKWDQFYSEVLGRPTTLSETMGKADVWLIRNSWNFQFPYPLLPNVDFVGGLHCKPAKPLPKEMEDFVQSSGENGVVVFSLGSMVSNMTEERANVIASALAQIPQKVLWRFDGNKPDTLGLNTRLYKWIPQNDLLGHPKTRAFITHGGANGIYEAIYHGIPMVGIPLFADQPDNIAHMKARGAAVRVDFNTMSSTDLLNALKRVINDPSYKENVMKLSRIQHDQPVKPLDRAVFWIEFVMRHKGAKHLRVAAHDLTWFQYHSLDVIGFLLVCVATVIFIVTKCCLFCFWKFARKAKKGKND
Description: as §1

CC(C(=O)OC1OC(C(=O)O)C(O)C(O)C1O)c1cccc(C(=O)c2ccccc2)c1 (stereo not shown) [R-KET-AG]
amount of covalent adducts with Nuc proteins compared with the other diastereomer (S-KET-AG) [1]: higher amounts of covalent adducts
amounts of covalent adducts with UGT2B (UGT2B4) relative to UGT1A isoforms [2]: relatively higher amounts of covalent adducts
covalent adduct formation with UGT2B4 compared with the other diastereomer ([2]; R vs S diastereomer): significantly more covalent adducts
covalent adduct formation with UGT1A1 compared with the other diastereomer [3]: significantly more covalent adducts
amount of covalent adducts with Mit proteins compared with the other diastereomer (S-KET-AG) [4]: higher amounts of covalent adducts
acyl migration rate compared with S-KET-AG [5]: higher acyl migration rate
amount of covalent adducts with Cyt proteins compared with the other diastereomer (S-KET-AG) [6]: higher amounts of covalent adducts
hydrolysis half-life in plasma compared with S-KET-AG [7]: shorter
amounts of covalent adducts with UGT2B (UGT2B7) relative to UGT1A isoforms [8]: relatively higher amounts of covalent adducts
covalent adduct formation with UGT2B7 compared with the other diastereomer ([8]; R vs S diastereomer): significantly more covalent adducts
